Assay results published in patent US20250075041A1, “COMPOSITIONS FOR SALTWATER-STABLE HYDROGEL ADHESIVES AND METHODS OF USE THEREOF” (Washington University, priority 2023, published 2025).

Assay: Solubility of copolymers and monomer
Format: physicochemical

Nb-TEG-ZnTPP [compound 22]
solubility in H2O: not soluble in H2O
